In patent US20230010299A1, “HETEROCYCLIC TRPML1 AGONISTS” (LIBRA THERAPEUTICS, INC., priority 2019, published 2023):

Molecular target: T1, TRPML1 (Homo sapiens, UniProt Q9GZU1)
T1 construct: expressed in transfected cells
Assay: Cellular TRPML1 assay (FLIPR TETRA, GCaMP6f calcium read-out)
Assay type: cell-based
Conditions: HEK T-REx/GCaMP6f/TRPML1 cells; Ca2+ response over 300 s, normalized to ML-SA1 50 μM; Ca2+ free or Optimem condition not given; read-out: Ec50 (Activity of TRPML1 agonists)
Procedure: Buffers and reagents • PBS (D-PBS without calcium and magnesium; EuroClone) • Trypsin (Trypsin 0.05%, EDTA 0.02% in PBS; EuroClone) • DMSO (Sigma) • Ca^2+ free Tyrode's buffer: in-house solution (130 mM NaCl, 5 mM KCl, 1 mM MgCl2, 5 mM NaHCO3, 20 mM HEPES in water at pH 7.4; sterile filtered). • Opti-MEM (Gibco) • Agonist: ML-SA1 (Sigma); stock: 60 mM in DMSO, stored at −20° C. • Blocker: ML-SI3 (in house synthesis); stock: 20 mM in DMSO, stored at −20° C.
The final clone for the TRPML1 assay is HEK T-REx/GCaMP6f/TRPML1.
GCaMP6f is a genetically encoded calcium indicator that is stably expressed in this cell line and used as a fluorescent read-out.
Experiments are performed in 384 MTP format. Cells are seeded at 15000 cells/well either in 25 μl/well of growth medium or in 20 μl/well of Optimem+0.5% FBS without selection antibiotics. Twenty-four hours later, cells are assayed for the response to various compounds using the Ca^2+ sensitive GCaMP6f protein stably expressed in the cells as readout.
The experiment is performed in a 384-well format according to the following procedures for either Ca^2+ free or Optimem conditions: • Ca^2+ free condition (in absence of extracellular Ca^2+): • 24 h after seeding, pre-incubate the cells at room temperature for about 10′. • Then remove the culture medium and replace it with 20 μL of Ca^2+ free Tyrode's buffer. • Start the experiment at the FLIPR^TETRA by injecting 10 μL/w of 3× concentrated test compounds and controls in Ca^2+ free Tyrode's buffer. Monitor the kinetic response over a period of 300 seconds. • Final DMSO concentration: 0.5% • Optimem condition (in presence of extracellular Ca^2+): • 24 h after seeding, pre-incubate the cells at room temperature for about 10′. • Start the experiment at the FLIPR^TETRA by injecting 10 μL/w of 3× concentrated test compounds and controls in Ca^2+ free Tyrode's buffer. Monitor the kinetic response over a period of 300 seconds. • Final DMSO concentration: 0.5%
Data from FLIPR^TETRA measurements are analyzed with the Genedata Screener® software.
Stimulator controls (Col 2): injection of ML-SA1 EC100 (50 μM) in alternated wells positions
Neutral controls (Col 2): injection of 0 mM Ca^2+ free Tyrode's buffer in alternated wells positions.
Test wells (Col 3-22): test compounds dose response curve from either 100 μM with 1:2 dilution steps or from 50 μM with 1:3.16 dilution steps.

T1 sequence (Q9GZU1 whole entry): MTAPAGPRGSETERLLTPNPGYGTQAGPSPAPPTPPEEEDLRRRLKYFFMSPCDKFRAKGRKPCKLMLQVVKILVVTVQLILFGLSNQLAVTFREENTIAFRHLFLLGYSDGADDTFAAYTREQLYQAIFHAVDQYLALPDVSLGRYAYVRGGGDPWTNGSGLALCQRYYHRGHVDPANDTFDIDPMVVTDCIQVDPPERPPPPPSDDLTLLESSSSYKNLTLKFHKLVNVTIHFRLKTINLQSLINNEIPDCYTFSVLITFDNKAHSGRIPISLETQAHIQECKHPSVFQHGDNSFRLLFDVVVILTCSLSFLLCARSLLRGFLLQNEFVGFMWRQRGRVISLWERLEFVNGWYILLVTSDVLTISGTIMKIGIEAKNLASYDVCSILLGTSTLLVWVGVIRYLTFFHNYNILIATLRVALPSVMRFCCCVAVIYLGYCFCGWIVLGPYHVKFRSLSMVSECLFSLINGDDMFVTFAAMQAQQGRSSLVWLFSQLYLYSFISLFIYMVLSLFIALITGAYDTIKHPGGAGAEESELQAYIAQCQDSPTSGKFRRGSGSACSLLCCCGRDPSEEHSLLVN

Structure (SMILES)	EC50 [µM]
COC1CCCN(c2ccccc2NS(=O)(=O)c2ccc(S(=O)(=O)N(C)C)cc2)CC1 (single isomer, unassigned) [Example 42, N1-(2-(4-methoxyazepan-1-yl)phenyl)-N4,N4-dimethylbenzene-1,4-disulfonamide]	5.6
CN(C)S(=O)(=O)c1ccc(S(=O)(=O)Nc2ccccc2N2CCOC(c3ccccc3)C2)cc1 (centres unmarked) [Example 100, N1,N1-dimethyl-N4-(2-(2-phenylmorpholino)phenyl)benzene-1,4-disulfonamide]	6.8
CCCOC1CCN(c2ccccc2NS(=O)(=O)c2ccc(S(=O)(=O)N(C)C)cc2)CC1 [Example 45, N1,N1-dimethyl-N4-(2-(4-propoxypiperidin-1-yl)phenyl)benzene-1,4-disulfonamide]	1.9
CCc1ccc(S(=O)(=O)N(C)c2ccccc2N2CC3CCC2C3)s1 (centres unmarked) [Example 21, N-(2-{2-azabicyclo[2.2.1]heptan-2-yl}phenyl)-5-ethyl-N-methylthiophene-2-sulfonamide]	55.6
CC1Cc2cc(S(=O)(=O)Nc3ccccc3N3CCN(C(=O)OC(C)(C)C)CC3)ccc2O1 (racemic) [Example 92, tert-butyl 4-(2-((2-methyl-2,3-dihydrobenzofuran)-5-sulfonamido)phenyl)piperazine-1-carboxylate]	2.4
Cc1cc(S(=O)(=O)Nc2ccccc2N2CCN(C(=O)OC(C)(C)C)CC2)c(C)s1 [Example 59, tert-butyl 4-(2-((2,5-dimethylthiophene)-3-sulfonamido)phenyl)piperazine-1-carboxylate]	1.6
CN(C)S(=O)(=O)c1ccc(S(=O)(=O)Nc2ccccc2N2CCOC(Cc3ccccc3)C2)cc1 (centres unmarked) [Example 101, N1-(2-(2-benzylmorpholino)phenyl)-N4,N4-dimethylbenzene-1,4-disulfonamide]	4
Cc1cncc(S(=O)(=O)Nc2ccccc2N2CCN(C(=O)OC(C)(C)C)CC2)c1 [Example 60, tert-butyl 4-(2-((5-methylpyridine)-3-sulfonamido)phenyl)piperazine-carboxylate]	7.3
CN(C)S(=O)(=O)c1ccc(S(=O)(=O)NC2CCCCC2N2CCC(Oc3ccccc3)CC2)cc1 (single isomer, unassigned) [Example 62, N1,N1-dimethyl-N4-[2-(4-phenoxypiperidin-1-yl)cyclohexyl]benzene-1,4-disulfonamide]	15.9
CN(C)S(=O)(=O)c1ccc(S(=O)(=O)Nc2ccccc2CN2CCCCC2)cc1 [Example 30, N1,N1-dimethyl-N4-(2-(piperidin-1-ylmethyl)phenyl)benzene-1,4-disulfonamide]	50
CC(C)N(C(=O)c1ccc(S(C)(=O)=O)cc1)c1ccccc1N1CCC(Oc2cnccn2)CC1 [Example 103, N-isopropyl-4-(methylsulfonyl)-N-(2-(4-(pyrazin-2-yloxy)piperidin-1-yl)phenyl)benzamide]	14.8
CN(C)c1ccc(S(=O)(=O)Nc2ccccc2N2CCCCC2)cc1 [Example 2, 4-(dimethylamino)-N-[2-(piperidin-1-yl)phenyl]benzene-1-sulfonamide]	58.9
CCc1ccc(S(=O)(=O)Nc2ccccc2N2CCN(C(=O)OC(C)(C)C)CC2)cc1 [Example 18, tert-butyl 4-(2-((4-ethylphenyl)sulfonamido)phenyl)piperazine-1-carboxylate]	3.5
CN(C)S(=O)(=O)c1ccc(S(=O)(=O)Nc2ccccc2N2CCc3ccccc3C2)cc1 [Example 9, N1,N1-dimethyl-N4-[2-(1,2,3,4-tetrahydroisoquinolin-2-yl)phenyl]benzene-1,4-disulfonamide]	47.4
CCCNC(=O)C1CCN(c2ccccc2NS(=O)(=O)c2ccc(S(=O)(=O)N(C)C)cc2)CC1 [Example 87, 1-{2-[4-(dimethylsulfamoyl)benzenesulfonamido]phenyl}-N-propylpiperidine-4-carboxamide]	18.5
COC1CCCN(c2ccccc2NS(=O)(=O)c2ccc(S(=O)(=O)N(C)C)cc2)CC1 (single isomer, unassigned) [Example 41, N1-(2-(4-methoxyazepan-1-yl)phenyl)-N4,N4-dimethylbenzene-1,4-disulfonamide]	4.4

Structure (SMILES)	EC50 [µM]
CN(C(=O)c1ccc(S(=O)(=O)N(C)C)cc1)c1ccccc1N1CCCCC1 [Example 15, 4-(dimethylsulfamoyl)-N-methyl-N-[2-(piperidin-1-yl)phenyl]benzamide]	59.1
CN(C)c1ccccc1NS(=O)(=O)c1ccc(S(=O)(=O)N(C)C)cc1 [Example 3, N4-[2-(dimethylamino)phenyl]-N1,N1-dimethylbenzene-1,4-disulfonamide]	50.2
Cc1noc(C)c1S(=O)(=O)Nc1ccccc1N1CCN(C(=O)OC(C)(C)C)CC1 [Example 64, tert-butyl 4-(2-((3,5-dimethylisoxazole)-4-sulfonamido)phenyl)piperazine-1-carboxylate]	36.4
Cc1ccccc1S(=O)(=O)Nc1ccccc1N1CCN(C(=O)OC(C)(C)C)CC1 [Example 47, tert-butyl 4-(2-((2-methylphenyl)sulfonamido)phenyl)piperazine-1-carboxylate]	5.2
Cc1ncsc1C(=O)N1CCN(c2ccccc2NS(=O)(=O)c2ccc(S(=O)(=O)N(C)C)cc2)CC1 [Example 80, N1,N1-dimethyl-N4-{2-[4-(4-methyl-1,3-thiazole-5-carbonyl)piperazin-1-yl]phenyl}benzene-1,4-disulfonamide]	18.9
COC1CCCN(c2ccccc2NS(=O)(=O)c2ccc(S(=O)(=O)N(C)C)cc2)C1 (centres unmarked) [Example 36, N4-[2-(3-methoxypiperidin-1-yl)phenyl]-N1,N1-dimethylbenzene-1,4-disulfonamide]	7.3
CN(C)S(=O)(=O)c1ccc(S(=O)(=O)Nc2ccccc2N2CCC(O)CC2)cc1 [Example 38, N1-(2-(4-hydroxypiperidin-1-yl)phenyl)-N4,N4-dimethylbenzene-1,4-disulfonamide]	34.5
CN(C)S(=O)(=O)c1ccc(S(=O)(=O)Nc2ccccc2N2CCCC2)cc1 [Example 32, N1,N1-dimethyl-N4-[2-(pyrrolidin-1-yl)phenyl]benzene-1,4-disulfonamide]	19.2
Cc1nc(C)c(S(=O)(=O)Nc2ccccc2N2CCN(C(=O)OC(C)(C)C)CC2)s1 [Example 56, tert-butyl 4-(2-((2,4-dimethylthiazole)-5-sulfonamido)phenyl)piperazine-1-carboxylate]	3.6
CC(C)(C)c1ccc(S(=O)(=O)Nc2ccccc2N2CC3CCC2C3)s1 (centres unmarked) [Example 16, N-(2-{2-azabicyclo[2.2.1]heptan-2-yl}phenyl)-5-tert-butylthiophene-2-sulfonamide]	14.6
O=S(=O)(Nc1ccccc1N1CCCCC1)c1cc2ccccc2s1 [Example 1, N-[2-(piperidin-1-yl)phenyl]-1-benzothiophene-2-sulfonamide]	91.1
CN(C)S(=O)(=O)c1ccc(S(=O)(=O)NC2CCCCC2N2CCC(c3ccccc3)CC2)cc1 (centres unmarked) [Example 55, N1,N1-dimethyl-N4-[2-(4-phenylpiperidin-1-yl)cyclohexyl]benzene-1,4-disulfonamide]	6.1
Cc1ccc(S(=O)(=O)Nc2ccccc2N2CCN(C(=O)OC(C)(C)C)CC2)c2cccnc12 [Example 95, tert-butyl 4-(2-((8-methylquinoline)-5-sulfonamido)phenyl)piperazine-1-carboxylate]	10.7
CN(C)S(=O)(=O)c1ccc(S(=O)(=O)Nc2ccccc2N2CCC(Oc3cccnc3)CC2)cc1 [Example 86, N1,N1-dimethyl-N4-{2-[4-(pyridin-3-yloxy)piperidin-1-yl]phenyl}benzene-1,4-disulfonamide]	5.7
CN1CCc2cc(S(=O)(=O)Nc3ccccc3N3CCN(C(=O)OC(C)(C)C)CC3)ccc21 [Example 72, tert-butyl 4-(2-((l-methylindoline)-5-sulfonamido)phenyl)piperazine-1-carboxylate]	3
CN(C)S(=O)(=O)c1ccc(S(=O)(=O)Nc2ccccc2N2CCC(c3ccccc3)CC2)cc1 [Example 12, N1,N1-dimethyl-N4-[2-(4-phenylpiperidin-1-yl)phenyl]benzene-1,4-disulfonamide]	2.8
